Reference: publication PMC9090415, “Discovery of small molecule inhibitors of Plasmodium falciparum apicoplast DNA polymerase” (Journal of Enzyme Inhibition and Medicinal Chemistry, 2022)
Where two headings read alike, the source gives them in different places.

Legend:
[1] = biological target: P. falciparum apicoplast DNA polymerase (Pf-apPOL) (Plasmodium falciparum, UniProt Q8ILY1); assay: Fluorescence-based high-throughput DNA polymerase assay (molecular beacon), primary screen and dose-response; type: biochemical
Outline: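 Single-point screening used 10 µM compound with 20 nM polymerase, 20 nM hairpin substrate and 6 µM dNTPs for 90 min at 25 °C. Confirmatory titrations (2.5–80 µM) followed fluorescence at three times, and IC50 was derived from a fit including a cooperativity term n.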

[2] = system: chloroquine resistant P. falciparum parasites (strain Dd2); assay: Parasite growth inhibition assay in human red blood cells (flow cytometry, acridine orange); type: cell-based; settings: Plasmodium falciparum, Erythrocyte
Procedure: The chloroquine resistant P. falciparum parasites (strain Dd2) were cultured in de-identified, IRB-exempt human red blood cells (RBCs) obtained from the American Red Cross and parasite cultures were maintained as described. Parasitaemia (percentage of total RBCs infected) was measured by flow cytometry on an Attune NxT (ThermoFisher) by nucleic-acid staining of cultured RBCs with phosphate-buffered saline (PBS) containing 0.8 µg ml^−1 acridine orange. We began by determining percent growth inhibition at single compound dose (20 µM) for the 102 non-toxic compounds. […] The experiments were initiated with a starting parasitaemia of ∼1% and parasitaemia was measured 72 and 96 h post compound addition. Growth was normalised to parasite cultures with carrier only (DMSO).
We tested the ability of the 102 compounds to kill P. falciparum parasites cultured in human red blood cells. Due to the number of compounds, we used a single inhibitor concentration of 20 µM and performed experiments in triplicate. […] These compounds were then tested in a dose-response format against chloroquine resistant P. falciparum parasites (Dd2) and the resulting data were fit to a sigmoidal growth inhibition curve to determine EC50 values (Figure 5, Table 2). […] Finally, to determine if the compounds were killing the parasites solely via apicoplast disruption, the dose-response curves were also performed with 1 mM isopentylpyrophosphate (IPP) in the growth media (Table 2). […] Very little is known regarding mitochondrial DNA replication in P. falciparum; however, signal sequence identification algorithms have predicted that the other bacterial A-family DNA polymerase residing in P. falciparum is targeted to the mitochondria (PF3D7_0625300)[29]. […] We are currently in the process of cloning and expressing this putative mitochondrial DNA polymerase to determine the effect of these compounds on its activity.

[3] = read-out: IC50 Pf-apPOL, Table 2
[4] = supplemental file 2, sheet IC50 nontoxic compounds, Pf-apPOL
[5] = Dd2 parasites in human RBCs, dose-response, no IPP, read-out: EC50
[6] = Dd2 parasites, 1 mM isopentylpyrophosphate (IPP) in the growth media, read-out: EC50 + IPP

Sequence of P. falciparum apicoplast DNA polymerase (Pf-apPOL) (Q8ILY1 entry or part of it): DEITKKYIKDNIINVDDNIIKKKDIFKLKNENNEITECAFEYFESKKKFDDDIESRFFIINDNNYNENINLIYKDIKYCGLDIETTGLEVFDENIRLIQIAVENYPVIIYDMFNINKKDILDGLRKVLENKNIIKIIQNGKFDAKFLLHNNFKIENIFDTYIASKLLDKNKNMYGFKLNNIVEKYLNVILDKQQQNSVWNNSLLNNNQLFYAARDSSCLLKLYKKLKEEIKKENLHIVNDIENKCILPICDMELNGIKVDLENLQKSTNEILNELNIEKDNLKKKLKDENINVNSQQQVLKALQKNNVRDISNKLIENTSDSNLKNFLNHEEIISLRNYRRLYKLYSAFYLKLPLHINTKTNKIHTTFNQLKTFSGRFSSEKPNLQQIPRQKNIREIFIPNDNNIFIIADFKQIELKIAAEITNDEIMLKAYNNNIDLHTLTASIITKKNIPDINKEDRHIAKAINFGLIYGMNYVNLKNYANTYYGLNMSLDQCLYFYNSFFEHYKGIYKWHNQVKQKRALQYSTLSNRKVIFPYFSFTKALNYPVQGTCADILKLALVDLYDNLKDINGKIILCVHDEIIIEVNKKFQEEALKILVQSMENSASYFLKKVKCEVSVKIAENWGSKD

SMILES	IC50 [1, 3]	IC50 [1, 4]	EC50 [2, 5]	EC50 [2, 6]
O=C(O)c1ccc(-c2nc3cc(-c4ccc5nc(-c6ccc(C(=O)O)cc6)[nH]c5c4)ccc3[nH]2)cc1 [Molecule 1]	5.9 ± 0.9 µM	5.92 µM	8.6 ± 0.4 µM	9.3 ± 0.5 µM
CCOc1nc2cccc(C(=O)OC(C)OC(=O)OC3CCCCC3)c2n1Cc1ccc(-c2ccccc2-c2nnn[nH]2)cc1 (centres unmarked) [Molecule 94]	7.6 ± 0.6 µM	7.66 µM	4.6 ± 0.2 µM	3.7 ± 0.5 µM
